Assay results reported in ChEMBL document CHEMBL3885861, “Open TG-GATES”.

Species: Rattus norvegicus
Assay: Open TG-GATES - Regimen: Single
Type: toxicity, organism-based, Sprague-Dawley
Parameters: regimen Single, gender Male, age 6 weeks
Details: in vivo, ip, route intraperitoneal injection; for APTT / Bas / Eos / Fbg / Hb / Ht / Lym / MCH / MCHC / MCV / Mono / Neu / PT / Plat / RBC / Ret / WBC: tissue Blood; for KIDNEY_L / KIDNEY_R / KIDNEY_TOTAL: tissue Kidney; for LIVER: tissue Liver; for A/G / ALP / ALT / AST / BUN / CRE / Ca / Cl / DBIL / GLC / IP / K / LDH / Na / PL / RALB / TBIL / TC / TG / TP / gamma-GTP: tissue Plasma
[1] = 0 mg/kg, 3 h, dose 0 ug/Kg, dose level Control
[2] = 0 mg/kg, 6 h, dose 0 ug/Kg, dose level Control
[3] = 0 mg/kg, 9 h, dose 0 ug/Kg, dose level Control
[4] = 0 mg/kg, 24 h, dose 0 ug/Kg, dose level Control
[5] = 0.03 mg/kg, 3 h, dose 30 ug/Kg, dose level Low
[6] = 0.03 mg/kg, 6 h, dose 30 ug/Kg, dose level Low
[7] = 0.03 mg/kg, 9 h, dose 30 ug/Kg, dose level Low
[8] = 0.03 mg/kg, 24 h, dose 30 ug/Kg, dose level Low

## CC(=O)N[C@H]1[C@@H](O[C@@H]2O[C@H](CC(O)[C@H]3O[C@@H](n4ccc(=O)[nH]c4=O)[C@H](O)[C@@H]3O)[C@H](O)[C@H](O)[C@H]2NC(=O)/C=C/CC(C)C)O[C@H](CO)[C@@H](N)[C@@H]1O (some centres undefined) [TUNICAMYCIN]
[1]
  TERMINAL_BW: 221.9 g
  APTT: 21.5 s
  Bas: 0%
  Eos: 0.5%
  Fbg: 293.8 mg/dL
  Hb: 13 g/dL
  Ht: 39.6%
  Lym: 77%
  MCH: 21.1 pg
  MCHC: 32.9%
  MCV: 64.1 fL
  Mono: 2.8%
  Neu: 18.8%
  PT: 15.8 s
  Plat: 103.5 x10_4/uL
  RBC: 617.8 x10_4/ul
  Ret: 8.1%
  WBC: 129.5 x10_2/uL
  KIDNEY_L: 1 g
  KIDNEY_R: 1 g
  KIDNEY_TOTAL: 2 g
  LIVER: 10.3 g
  A/G: 1.2
  ALP: 1530.2 IU/L
  ALT: 45 IU/L
  AST: 75 IU/L
  BUN: 14 mg/dL
  CRE: 0.2 mg/dL
  Ca: 10.6 mg/dL
  Cl: 106.5 meq/L
  DBIL: 0 mg/dL
  GLC: 175.2 mg/dL
  IP: 8.4 mg/dL
  K: 4.4 meq/L
  LDH: 176.5 IU/L
  Na: 140.2 meq/L
  PL: 127.5 mg/dL
  RALB: 2.9 g/dL
  TBIL: 0.0125 mg/dL
  TC: 71.8 mg/dL
  TG: 72.5 mg/dL
  TP: 5.3 g/dL
  gamma-GTP: 1 IU/L
[2]
  TERMINAL_BW: 222.7 g
  APTT: 22.4 s
  Bas: 0%
  Eos: 0.4%
  Fbg: 306.8 mg/dL
  Hb: 13 g/dL
  Ht: 40.2%
  Lym: 75.2%
  MCH: 20.6 pg
  MCHC: 32.4%
  MCV: 63.4 fL
  Mono: 2%
  Neu: 22%
  PT: 15.4 s
  Plat: 114.6 x10_4/uL
  RBC: 634.2 x10_4/ul
  Ret: 7.9%
  WBC: 100.9 x10_2/uL
  KIDNEY_L: 1 g
  KIDNEY_R: 1 g
  KIDNEY_TOTAL: 2 g
  LIVER: 10.1 g
  A/G: 1.2
  ALP: 1339.6 IU/L
  ALT: 39.6 IU/L
  AST: 68.6 IU/L
  BUN: 11 mg/dL
  CRE: 0.1 mg/dL
  Ca: 10.9 mg/dL
  Cl: 104.8 meq/L
  DBIL: 0 mg/dL
  GLC: 186.8 mg/dL
  IP: 9.2 mg/dL
  K: 4.2 meq/L
  LDH: 142.8 IU/L
  Na: 142.4 meq/L
  PL: 133 mg/dL
  RALB: 2.9 g/dL
  TBIL: 0.018 mg/dL
  TC: 74.2 mg/dL
  TG: 63.2 mg/dL
  TP: 5.4 g/dL
  gamma-GTP: 1.2 IU/L
[3]
  TERMINAL_BW: 216.2 g
  APTT: 22.6 s
  Bas: 0%
  Eos: 0.6%
  Fbg: 299.2 mg/dL
  Hb: 13.1 g/dL
  Ht: 40.6%
  Lym: 81.2%
  MCH: 20.3 pg
  MCHC: 32.2%
  MCV: 63 fL
  Mono: 1.8%
  Neu: 15.8%
  PT: 15.7 s
  Plat: 118.2 x10_4/uL
  RBC: 643.6 x10_4/ul
  Ret: 7.7%
  WBC: 98.9 x10_2/uL
  KIDNEY_L: 1 g
  KIDNEY_R: 1 g
  KIDNEY_TOTAL: 1.9 g
  LIVER: 8.6 g
  A/G: 1.2
  ALP: 1451.4 IU/L
  ALT: 37.6 IU/L
  AST: 71 IU/L
  BUN: 11.2 mg/dL
  CRE: 0.1 mg/dL
  Ca: 10.3 mg/dL
  Cl: 104.8 meq/L
  DBIL: 0 mg/dL
  GLC: 195.4 mg/dL
  IP: 9.6 mg/dL
  K: 4.2 meq/L
  LDH: 158.4 IU/L
  Na: 141.8 meq/L
  PL: 128 mg/dL
  RALB: 2.8 g/dL
  TBIL: 0.024 mg/dL
  TC: 74.2 mg/dL
  TG: 54 mg/dL
  TP: 5.2 g/dL
  gamma-GTP: 1 IU/L
[4]
  TERMINAL_BW: 234.3 g
  APTT: 21.6 s
  Bas: 0%
  Eos: 1%
  Fbg: 295.2 mg/dL
  Hb: 12.7 g/dL
  Ht: 39.1%
  Lym: 78.6%
  MCH: 20.2 pg
  MCHC: 32.4%
  MCV: 62.4 fL
  Mono: 3.6%
  Neu: 16.2%
  PT: 16.2 s
  Plat: 119.3 x10_4/uL
  RBC: 626.8 x10_4/ul
  Ret: 7.3%
  WBC: 88.7 x10_2/uL
  KIDNEY_L: 1.1 g
  KIDNEY_R: 1.1 g
  KIDNEY_TOTAL: 2.1 g
  LIVER: 10.8 g
  A/G: 1.2
  ALP: 1584.8 IU/L
  ALT: 42.2 IU/L
  AST: 71.2 IU/L
  BUN: 16.6 mg/dL
  CRE: 0.1 mg/dL
  Ca: 10.5 mg/dL
  Cl: 105.2 meq/L
  DBIL: 0 mg/dL
  GLC: 184.4 mg/dL
  IP: 6.8 mg/dL
  K: 4.6 meq/L
  LDH: 146.4 IU/L
  Na: 141.2 meq/L
  PL: 136 mg/dL
  RALB: 3.1 g/dL
  TBIL: 0.008 mg/dL
  TC: 73.6 mg/dL
  TG: 70.8 mg/dL
  TP: 5.5 g/dL
  gamma-GTP: 1.8 IU/L
[5]
  TERMINAL_BW: 222.8 g
  APTT: 22.4 s
  Bas: 0%
  Eos: 0.6%
  Fbg: 302.4 mg/dL
  Hb: 13 g/dL
  Ht: 39.3%
  Lym: 81%
  MCH: 20.5 pg
  MCHC: 33%
  MCV: 62.1 fL
  Mono: 3%
  Neu: 14.4%
  PT: 15.7 s
  Plat: 115.4 x10_4/uL
  RBC: 633.2 x10_4/ul
  Ret: 8.1%
  WBC: 99.9 x10_2/uL
  KIDNEY_L: 1 g
  KIDNEY_R: 1 g
  KIDNEY_TOTAL: 2 g
  LIVER: 10.4 g
  A/G: 1.2
  ALP: 1404.2 IU/L
  ALT: 37.6 IU/L
  AST: 69.6 IU/L
  BUN: 15.4 mg/dL
  CRE: 0.2 mg/dL
  Ca: 10.8 mg/dL
  Cl: 106 meq/L
  DBIL: 0 mg/dL
  GLC: 173.4 mg/dL
  IP: 7.5 mg/dL
  K: 4.5 meq/L
  LDH: 151.2 IU/L
  Na: 140.8 meq/L
  PL: 126 mg/dL
  RALB: 2.9 g/dL
  TBIL: 0.01 mg/dL
  TC: 71.8 mg/dL
  TG: 78.6 mg/dL
  TP: 5.4 g/dL
  gamma-GTP: 1.4 IU/L
[6]
  TERMINAL_BW: 219.6 g
  APTT: 21.8 s
  Bas: 0%
  Eos: 0.4%
  Fbg: 295 mg/dL
  Hb: 13.2 g/dL
  Ht: 39.8%
  Lym: 77.8%
  MCH: 20.9 pg
  MCHC: 33%
  MCV: 63.3 fL
  Mono: 2%
  Neu: 18.6%
  PT: 15.6 s
  Plat: 114.3 x10_4/uL
  RBC: 629.2 x10_4/ul
  Ret: 7.1%
  WBC: 90.7 x10_2/uL
  KIDNEY_L: 1 g
  KIDNEY_R: 1 g
  KIDNEY_TOTAL: 2 g
  LIVER: 9.8 g
  A/G: 1.2
  ALP: 1356.2 IU/L
  ALT: 42.6 IU/L
  AST: 74.6 IU/L
  BUN: 12.6 mg/dL
  CRE: 0.2 mg/dL
  Ca: 10.8 mg/dL
  Cl: 105.2 meq/L
  DBIL: 0 mg/dL
  GLC: 168.2 mg/dL
  IP: 8.9 mg/dL
  K: 4.4 meq/L
  LDH: 157.8 IU/L
  Na: 141.2 meq/L
  PL: 120.6 mg/dL
  RALB: 2.9 g/dL
  TBIL: 0.018 mg/dL
  TC: 69.2 mg/dL
  TG: 57.6 mg/dL
  TP: 5.3 g/dL
  gamma-GTP: 1.2 IU/L
[7]
  TERMINAL_BW: 213.3 g
  APTT: 23.6 s
  Bas: 0%
  Eos: 0.6%
  Fbg: 315.4 mg/dL
  Hb: 13.5 g/dL
  Ht: 41%
  Lym: 83.8%
  MCH: 21 pg
  MCHC: 32.9%
  MCV: 63.8 fL
  Mono: 2%
  Neu: 12.8%
  PT: 15.8 s
  Plat: 112.5 x10_4/uL
  RBC: 643.2 x10_4/ul
  Ret: 7.5%
  WBC: 85.7 x10_2/uL
  KIDNEY_L: 0.9 g
  KIDNEY_R: 1 g
  KIDNEY_TOTAL: 1.9 g
  LIVER: 8.9 g
  A/G: 1.2
  ALP: 1454.8 IU/L
  ALT: 36.4 IU/L
  AST: 71.2 IU/L
  BUN: 12.8 mg/dL
  CRE: 0.1 mg/dL
  Ca: 10.8 mg/dL
  Cl: 106 meq/L
  DBIL: 0 mg/dL
  GLC: 181 mg/dL
  IP: 9.3 mg/dL
  K: 4.4 meq/L
  LDH: 174 IU/L
  Na: 142.2 meq/L
  PL: 129 mg/dL
  RALB: 3 g/dL
  TBIL: 0.01 mg/dL
  TC: 75.4 mg/dL
  TG: 70.4 mg/dL
  TP: 5.5 g/dL
  gamma-GTP: 1 IU/L
[8]
  TERMINAL_BW: 234.5 g
  APTT: 21.3 s
  Bas: 0%
  Eos: 0.8%
  Fbg: 308.6 mg/dL
  Hb: 12.8 g/dL
  Ht: 39.3%
  Lym: 82%
  MCH: 20.1 pg
  MCHC: 32.5%
  MCV: 61.6 fL
  Mono: 2.6%
  Neu: 13.4%
  PT: 15.7 s
  Plat: 114.8 x10_4/uL
  RBC: 637.8 x10_4/ul
  Ret: 7.4%
  WBC: 75.9 x10_2/uL
  KIDNEY_L: 1 g
  KIDNEY_R: 1.1 g
  KIDNEY_TOTAL: 2.1 g
  LIVER: 11.1 g
  A/G: 1.2
  ALP: 1690.8 IU/L
  ALT: 40.4 IU/L
  AST: 67.8 IU/L
  BUN: 16.6 mg/dL
  CRE: 0.1 mg/dL
  Ca: 10.4 mg/dL
  Cl: 105.6 meq/L
  DBIL: 0 mg/dL
  GLC: 183.4 mg/dL
  IP: 7.3 mg/dL
  K: 4.6 meq/L
  LDH: 148 IU/L
  Na: 141.2 meq/L
  PL: 141.6 mg/dL
  RALB: 3 g/dL
  TBIL: 0.006 mg/dL
  TC: 76.4 mg/dL
  TG: 98.6 mg/dL
  TP: 5.6 g/dL
  gamma-GTP: 1.4 IU/L
